Test results from patent US20210330611A1, “THERAPY FOR NEUROLOGICAL DISEASES/DISORDERS” (priority 2020, published 2021).
Read-outs that look alike come from different tables or passages of the source.

Tests used:
[1] = system: primary rat microglia; assay: Cell toxicity (dead cells, size <150 μm2) in coated fibrin (cFib) assay;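 note: share of dead cells sized under 150 µm2 at 10 µM in fibrin-stimulated microglia HTS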
[2] = system: LPS-induced microglia activation; assay: Image-based assay of LPS-induced microglia activation (HTS and dose response); assay type: cell-based, rat; conditions: for inhibition at 10 µM: Rattus norvegicus, Microglia, read-out: LPS % inhibition
[3] = system: fibrin-induced microglia activation; assay: Image-based assay of fibrin-induced microglia activation (HTS and dose response); assay type: cell-based, rat; conditions: for inhibition at 10 µM: Rattus norvegicus, Microglia, read-out: Fibrin % inhibition
[4] = system: primary rat microglia; assay: Cell toxicity (dead cells, size <150 μm2) in LPS assay
[5] = system: fibrin- and LPS-induced microglia activation; assay: cells; assay type: cell-based, rat
[6] = primary microglia HTS, fibrin stimulation, decreased size (<150 μm^2) as marker of toxicity
[7] = primary microglia HTS, fibrin stimulation, increased cell size (>800 μm^2) as marker of activation
[8] = primary microglia HTS, LPS stimulation, decreased size (<150 μm^2) as marker of toxicity
[9] = HTS of 1907 compounds, quadrant by fibrin and LPS inhibition
[10] = quadrant by fibrin and LPS inhibition in HTS of 1907 compounds
[11] = primary microglia HTS, 10 μM, fibrin assay, cell size <150 μm^2 as marker of toxicity
[12] = primary microglia HTS, 10 μM, LPS-stimulated, cell size >800 μm^2 as marker of activation
[13] = primary microglia HTS, 10 μM, fibrin-stimulated, cell size >800 μm^2 as marker of activation
[14] = primary microglia HTS, 10 μM, LPS assay, cell size <150 μm^2 as marker of toxicity
[15] = 48 h, primary microglia HTS, LPS stimulation, increased cell size (>800 μm^2) as marker of activation
[16] = primary HTS, 10 μM, fibrin assay, dead cells size <150 μm2
[17] = primary HTS, 10 μM, LPS-stimulated primary microglia
[18] = primary HTS, 10 μM, fibrin-stimulated primary microglia
[19] = primary HTS, 10 μM, LPS assay, dead cells size <150 μm2

CCCCCCc1ccc(O)cc1O.Nc1c2ccccc2nc2ccccc12 [Acrisorcin, reference compound]
Fibrin % cell toxicity [1, 6]: 2% | IC50 ([2]; LPS-induced microglia activation, dose response, read-out: LPS IC50 (uM) (Suppl. Table 7)): 5 µM | IC50 ([2]; Table 1, dose response 0.001-20 μM, triplicates, primary rat microglia, 48 h, read-out: LPS IC50): 5 µM | IC50 ([2]; dose response, LPS-induced microglia activation, read-out: LPS IC50): 5 µM | LPS % inhibition ([2]; primary microglia HTS, LPS stimulation, increased cell size (>800 μm^2) as marker of activation): 113% | IC50 ([3]; Table 1, dose response 0.001-20 μM, triplicates, primary rat microglia, 48 h, read-out: Fibrin IC50): 7 µM | IC50 ([3]; dose response, fibrin-induced microglia activation, read-out: Fibrin IC50): 7 µM | IC50 ([3]; fibrin-induced microglia activation, dose response, read-out: Fibrin IC50 (uM) (Suppl. Table 7)): 7 µM | Fibrin % inhibition [3, 7]: 87% | LPS % cell toxicity [4, 8]: 52% | IC50 ([4]; read-out: Cell Toxicity IC50 (uM) [LPS assay], LPS assay): 6 µM | Hit ([5]; HTS hit classification): HIT (Hits were defined as molecules that exhibited greater than 50% inhibition of either fibrin or LPS activation) | Quadrant (FIG. 5b) [5, 9]: Q2 | Quadrant (FIG. 5b) ([5]; Table 1, screen at 10 μM): Q2 | Cherry-picked Hit (Suppl. Table 7) ([5]; hit classification in microglia HTS): HIT (Hits were defined as molecules that exhibited greater than 50% inhibition of either fibrin or LPS activation) | Quadrant (FIG. 5b) [5, 10]: Q2

C[C@@H]1O[C@@H](OC[C@H]2O[C@@H](Oc3c(-c4ccc(OCCO)c(OCCO)c4)oc4cc(OCCO)cc(O)c4c3=O)[C@H](O)[C@@H](O)[C@@H]2O)[C@H](O)[C@H](O)[C@H]1O [Troxerutin]
Fibrin % cell toxicity [1, 11]: 0% | inhibition at 10 µM [2, 12]: 8% | inhibition at 10 µM [3, 13]: -10% | LPS % cell toxicity [4, 14]: 0% | Quadrant (FIG. 5b) [5, 9]: Q4

COc1cccc(OC)c1C(=O)N[C@@H]1C(=O)N2[C@@H]1SC(C)(C)[C@@H]2C(=O)O [Meticillin]
Fibrin % cell toxicity [1, 6]: 0% | inhibition at 10 µM [2, 15]: 18% | inhibition at 10 µM [3, 7]: -19% | LPS % cell toxicity [4, 8]: 0% | Quadrant (FIG. 5b) [5, 10]: Q4

COc1ccc2cc(CCC(C)=O)ccc2c1 [Nabumetone]
Fibrin % cell toxicity [1, 6]: 1% | inhibition at 10 µM [2, 15]: 15% | inhibition at 10 µM [3, 7]: -13% | LPS % cell toxicity [4, 8]: 0% | Quadrant (FIG. 5b) [5, 10]: Q4

c1ccc(CC2=NCCN2)cc1 [Tolazoline, Priscoline]
Fibrin % cell toxicity [1, 11]: 0% | LPS % inhibition [2, 12]: 17% | Fibrin % inhibition [3, 13]: −90% | LPS % cell toxicity [4, 14]: 0% | Quadrant (FIG. 5b) [5, 9]: Q4

CCCc1nc(C(C)(C)O)c(C(=O)OCc2oc(=O)oc2C)n1Cc1ccc(-c2ccccc2-c2nnn[nH]2)cc1 [Olmesartan Medoxomil]
Fibrin % cell toxicity [1, 6]: 1% | inhibition at 10 µM [2, 15]: 12% | inhibition at 10 µM [3, 7]: -5% | LPS % cell toxicity [4, 8]: 0% | Quadrant (FIG. 5b) [5, 10]: Q4

Clc1ccc(CCC(Cn2ccnc2)Sc2c(Cl)cccc2Cl)cc1 (centres unmarked) [Butoconazole]
Fibrin % cell toxicity [1, 16]: 0% | inhibition at 10 µM [2, 17]: 10% | inhibition at 10 µM [3, 18]: -51% | LPS % cell toxicity [4, 19]: 0% | Quadrant (FIG. 5b) ([5]; primary HTS, 10 μM): Q4

Cn1nnnc1SCC1=C(C(=O)O)N2C(=O)[C@@H](NC(=O)[C@H](O)c3ccccc3)[C@H]2SC1 [Cefamandole Sodium]
Fibrin % cell toxicity [1, 16]: 1% | inhibition at 10 µM [2, 17]: 16% | inhibition at 10 µM [3, 18]: -12% | LPS % cell toxicity [4, 19]: 0% | Quadrant (FIG. 5b) ([5]; primary HTS, 10 μM): Q4

Nc1ccn([C@@H]2O[C@H](CO)[C@@H](O)C2(F)F)c(=O)n1 [Gemcitabine]
Fibrin % cell toxicity ([1]; primary microglia HTS, fibrin stimulation, toxicity = cell size <150 μm2): 1% | inhibition at 10 µM ([2]; 48 h, primary microglia HTS, LPS stimulation, activation = cell size >800 μm2): 0% | inhibition at 10 µM ([3]; primary microglia HTS, fibrin stimulation, activation = cell size >800 μm2): -31% | LPS % cell toxicity ([4]; primary microglia HTS, LPS stimulation, toxicity = cell size <150 μm2): 0% | Quadrant (FIG. 5b) [5, 10]: Q4

Cc1cc(C(C)(C)C)c(O)c(C)c1CC1=NCCN1 [Oxymetazoline]
Fibrin % cell toxicity [1, 6]: 1% | inhibition at 10 µM [2, 15]: 20% | inhibition at 10 µM [3, 7]: -13% | LPS % cell toxicity [4, 8]: 0% | Quadrant (FIG. 5b) [5, 10]: Q4

CC(=O)OCC(=O)[C@@]1(O)[C@@H](C)C[C@H]2[C@@H]3CCC4=CC(=O)C=C[C@]4(C)[C@@]3(F)[C@@H](O)C[C@@]21C [Betamethasone Acetate]
Fibrin % cell toxicity [1, 6]: 3% | inhibition at 10 µM [2, 15]: 100% | inhibition at 10 µM [3, 7]: 107% | LPS % cell toxicity [4, 8]: 4% | Quadrant (FIG. 5b) [5, 10]: Q2

Cn1cnc2c1c(=O)[nH]c(=O)n2C [Theobromine]
Fibrin % cell toxicity [1, 11]: 0% | inhibition at 10 µM [2, 12]: 18% | inhibition at 10 µM [3, 13]: 11% | LPS % cell toxicity [4, 14]: 1% | Quadrant (FIG. 5b) [5, 9]: Q4
